Patent publication US12053459B2, “CDK2 inhibitors and methods of using the same” (Cedilla Therapeutics, Inc., priority 2021, dated 2024)

Legend:
[1] = molecular target: CDK2/Cyclin E1(14-475) (Homo sapiens, UniProt P24941); experiment: Caliper LabChip EZ Reader mobility shift assay, inhibition of CDK2/Cyclin E1 activity; type: biochemical; conditions: class symbols A-D
Description: Inhibition of CDK2/Cyclin E1 activity in the presence of compounds of the present disclosure was evaluated using a Caliper LabChip® EZ Reader mobility shift assay. In the assay, activated CDK2/Cyclin E1 catalyzes the phosphorylation of a fluorescently tagged peptide 5-FAM-QSPKKG-CONH2 (PerkinElmer, FL Peptide 18) which induces a difference in capillary electrophoresis mobility. The peptide substrate and product were measured, and the conversion ratio was used to determine the inhibition (as % activity and IC50 values) of CDK2/Cyclin E1. Reactions contained 50 mM HEPES pH 7.5, 10 mM MgCl2, 1 mM EDTA, 2 mM DTT, 0.01% Brij35, 0.5 mg/mL BSA, 0.1% DMSO, 2.5 nM CDK2/Cyclin E1(14-475), 100 μM ATP, and 1.5 μM fluorescent peptide substrate.
Dose titrations of inhibitors in 100% DMSO were combined with 3.25 nM CDK2/Cyclin E1(14-475) and 130 μM of ATP in reaction buffer. The mixtures were incubated for 30 minutes before the addition of fluorescent peptide substrate to initiate the kinase reaction. The final conditions were 2.5 nM CDK2/Cyclin E1(14-475), 100 μM ATP, and 1.5 μM fluorescent peptide. The reactions were stopped after 100 minutes with the addition of EDTA (6 mM final EDTA concentration). The stopped reactions were analyzed on a Caliper LabChip® EZ Reader II. The conversion ratios were normalized to yield % activity, plotted against compound concentration, and fit to a four-parameter equation to determine the IC50 for each compound.

[2] = system: Kuramochi cells; experiment: BrdU cell proliferation assay (colorimetric ELISA), Kuramochi cells; type: cell-based; conditions: class symbols A-D
Description: A BrdU assay was used as a measure of proliferation based on the DNA replication process of proliferating cells. BrdU, a pyrimidine analog, is added to the cell culture and incorporated into the DNA of proliferating cells. The presence of the BrdU analog was then measured through a colorimetric ELISA. After fixation and permeabilization of cells, peroxidase-conjugated antibody recognizing BrdU is added and allowed to incubate, followed by thorough washing to remove unbound antibody. In order to quantify the amount of bound antibody, peroxidase substrate is added and produces a color that can be measured at 450 nm.
On day −1, Kuramochi cells (Sekisui XenoTech JCRB0098) were seeded at 2,000 cells/well in columns 2-12 of a 96 well plate (Corning, CLS3596) in 150 uL media and allowed to adhere overnight at 37 degree with 5% CO2. In order to assess specificity of the compounds, Kuramochi RB^KO cells were also plated and treated, as RB^KO cells were not expected to show a proliferative response to CCNE/CDK specific inhibitors.
On day 0, the source plate was prepared by adding 10 mM compounds and performing 3-fold serial dilutions for a 4-point dose response of each compound. Using a multichannel pipette, 2 uL of the contents of the source plate were stamped into an intermediate plate with 500 uL of RPMI 1640 Media, GlutaMAX Supplement (Life Technologies, 61870127) in each well of a Nunc 96 DeepWell™ plate, non-treated 96 DeepWell plate, 2 mL/well, sterile, natural, 60/cs (Sigma Z717274) and mixed thoroughly. 50 uL from row A of this intermediate plate were added to rows A-H of one plate of previously seeded Kuramochi cells, and each subsequent row of the intermediate plate was added to a full plate of cells.
On day 4, the plates were developed using the BrdU ELISA Cell Proliferation Assay according to manufacturer's instructions (Roche, 11647229001). Briefly, BrdU was diluted 1:100 in Gibco®, Opti-MEM® and 20 μL/well was added, shaken for 10 minutes at 350 rpm, and then returned to the incubator for 1 hour. Following incubation, the medium was discarded, and the cells were fixed by adding 200 μL of Fix/Denature solution. The anti-BrdU peroxidase antibody was diluted 1:1000 in OptiMEM, added at 100 μL/well, and incubated while shaking (350 rpm) for one hour. Three washes with PBS were performed to remove any unbound antibody, followed by the addition of 100 μL of substrate solution to each well. […] was then added to halt the reaction, and plates were read out using an Envision spectrophotometer (Perkin Elmer) set to read 450 nm absorbance. Background absorbance values from empty wells were subtracted from all samples and then normalized to DMSO treated wells.

SMILES | IC50 [1] [µM] | IC50 [2] [µM]
CCOc1cnc(C(=O)N2CC3CN(C(=O)Cc4c[nH]c5cc(Cl)ccc45)CC(C(=O)N[C@@H](CCCc4ccccc4)C(=O)NC)C3C2)cn1 (some centres unmarked) [I-41] | > 10 | > 10
CNC(=O)[C@H](CCCc1ccccc1)NC(=O)C1CN(C(=O)c2cnc3ccccc3c2)CC2CN(C(=O)c3ccc(OC(C)C)c(OC)c3)CC21 (some centres unmarked) [I-181] | > 10 | > 10
CNC(=O)[C@H](CCCc1ccccc1)NC(=O)C1CN(C(=O)Cc2cnccn2)CC2CN(C(=O)c3ccc(OC(C)C)c(OC)c3)CC21 (some centres unmarked) [I-230] | > 10 | > 10
CNC(=O)[C@H](CCCc1ccccc1)NC(=O)C1CN(C(=O)Cc2c[nH]c3cc(Cl)ccc23)CC2CN(C(=O)c3cc4cc(C)ccc4[nH]3)CC21 (some centres unmarked) [I-38] | > 10 | > 10
CNC(=O)[C@H](CCCc1ccccc1)NC(=O)C1CN(C(=O)CCCc2ccccn2)CC2CN(C(=O)c3ccc(OC(C)C)c(OC)c3)CC21 (some centres unmarked) [I-192] | > 10 | > 10
CNC(=O)[C@H](CCCc1ccccc1)NC(=O)C1CN(C(=O)c2coc(C)n2)CC2CN(C(=O)c3ccc(OC(C)C)c(OC)c3)CC21 (some centres unmarked) [I-166] | > 10 | > 10
CNC(=O)[C@H](CCCc1ccccc1)NC(=O)C1CN(C(=O)CCc2c[nH]c3ccccc23)CC2CN(C(=O)c3ccc(OC(C)C)c(OC)c3)CC21 (some centres unmarked) [I-157] | > 10 | > 10
CNC(=O)[C@H](CCCc1ccccc1)NC(=O)C1CN(C(=O)Cc2c[nH]c3cc(Cl)ccc23)CC2CN(C(=O)c3cc(-c4ccccc4)nn3C)CC21 (some centres unmarked) [I-26] | 5 to 10 | > 10
CNC(=O)[C@@H](CCCC1CCOCC1)NC(=O)C1CN(C(=O)Cc2c[nH]c3cc(Cl)ccc23)CC2CN(C(=O)c3ccc(OC(C)C)c(OC)c3)CC21 (some centres unmarked) [I-131] | 5 to 10 | 0.5 to 5
CNC(=O)[C@H](CCCC1CCOCC1)NC(=O)C1CN(C(=O)Cc2c[nH]c3cc(Cl)ccc23)CC2CN(C(=O)c3ccc(OC(C)C)c(OC)c3)CC21 (some centres unmarked) [I-130] | 0.5 to 5 | > 10
CNC(=O)[C@H](CCCc1ccccc1)NC(=O)C1CN(C(=O)Cc2c[nH]c3cc(Cl)ccc23)CC2CN(C(=O)c3cc(-c4ccccc4)n(C)n3)CC21 (some centres unmarked) [I-71] | > 10 | > 10
CNC(=O)[C@H](CCCc1ccccc1)NC(=O)C1CN(C(=O)Cc2ccccn2)CC2CN(C(=O)c3ccc(OC(C)C)c(OC)c3)CC21 (some centres unmarked) [I-155] | > 10 | > 10
CNC(=O)[C@@H](CCCC1CCCCC1)NC(=O)C1CN(C(=O)Cc2c[nH]c3cc(Cl)ccc23)CC2CN(C(=O)c3ccc(OC(C)C)c(OC)c3)CC21 (some centres unmarked) [I-112] | 5 to 10 | > 10

Second part, led by results:

IC50 [1] [µM] | SMILES | IC50 [2] [µM]
0.5 to 5 | CNC(=O)[C@@H](NC(=O)C1CN(C(=O)Cc2c[nH]c3cc(Cl)ccc23)CC2CN(C(=O)c3ccc(OC(C)C)c(OC)c3)CC21)[C@@H](C)OCc1ccccc1 (some centres unmarked) [I-102] | > 10
0.5 to 5 | CNC(=O)[C@H](CCCc1cccnc1)NC(=O)C1CN(C(=O)Cc2c[nH]c3cc(Cl)ccc23)CC2CN(C(=O)c3ccc(OC(C)C)c(OC)c3)CC21 (some centres unmarked) [I-126] | > 10
> 10 | CNC(=O)[C@H](NC(=O)C1CN(C(=O)Cc2c[nH]c3cc(Cl)ccc23)CC2CN(C(=O)c3ccc(OC(C)C)c(OC)c3)CC21)[C@H](C)OCc1ccccc1 (some centres unmarked) [I-105] | > 10
0.5 to 5 | COc1cc(C(=O)N2CC3CN(C(=O)Cc4c[nH]c5cc(Cl)ccc45)CC(C(=O)NCC(=O)NCCCc4ccccc4)C3C2)ccc1OC(C)C (centres unmarked) [I-99] | > 10
0.5 to 5 | COc1cc(C(=O)N2CC3CN(C(=O)Cc4c[nH]c5cc(Cl)ccc45)CC(C(=O)N[C@@H](CCCc4cccc(O)c4)C(=O)NCCCCCN)C3C2)ccc1OC(C)C (single isomer, unassigned) [I-257] | > 10
0.5 to 5 | CNC(=O)[C@H](CCCc1ccccc1)NC(=O)C1CN(C(=O)C(C)c2c[nH]c3cc(Cl)ccc23)CC2CN(C(=O)c3ccc(OC(C)C)c(OC)c3)CC21 (some centres unmarked) [I-226] | 5 to 10
